Measured values reported in ChEMBL document CHEMBL1833849, “Novel 4-azasteroidal N-glycoside analogues bearing sugar-like D ring: synthesis and anticancer activities” (2011).

Key:
Assay type in all cases: functional
HeLa = assay: Cytotoxicity against human HeLa cells assessed as growth inhibition after 3 days by MTT assay; conditions: 72 h
SK-N-SH = assay: Cytotoxicity against human SK-N-SH cells assessed as growth inhibition after 3 days by MTT assay; conditions: 72 h
PC-3 = assay: Cytotoxicity against human PC3 cells assessed as growth inhibition after 3 days by MTT assay; conditions: PC-3, 72 h
MCF7 = assay: Cytotoxicity against human MCF7 cells assessed as growth inhibition after 3 days by MTT assay; conditions: MCF7, 72 h

Row | Structure (SMILES) | GI50 (HeLa) [µM] | GI50 (SK-N-SH) [µM] | GI50 (PC-3) [µM] | GI50 (MCF7) [µM]
1 | C[C@]12CCC(=O)N[C@@H]1CC[C@@H]1[C@@H]2CC[C@]2(C)O[C@H](n3cnc4c(NCc5ccccc5)ncnc43)CC[C@@H]12 | 129 | 133 | 20.6 | 136
2 | C[C@]12CCC(=O)N[C@@H]1CC[C@@H]1[C@@H]2CC[C@]2(C)O[C@H](n3cnc4c(Cl)nc(F)nc43)CC[C@@H]12 | 13.3 | 10.7 | 3.76 | 16.7
3 | C[C@]12CCC(=O)N[C@@H]1CC[C@@H]1[C@@H]2CC[C@]2(C)O[C@H](n3cnc4c(Cl)ncnc43)CC[C@@H]12 | 17.7 | 103 | 3.25 | 20.9
4 | C[C@]12CCC(=O)N[C@@H]1CC[C@@H]1[C@@H]2CC[C@]2(C)O[C@H](n3cnc4c(Cl)nc(Cl)nc43)CC[C@@H]12 | 7.57 | 34.2 | 11.2 | 34.2
5 | CC(=O)O[C@H]1C(=O)[C@@]2(C)[C@H]([C@H](OC(=O)c3ccccc3)[C@]3(O)C[C@H](OC(=O)[C@H](O)[C@@H](NC(=O)c4ccccc4)c4ccccc4)C(C)=C1C3(C)C)[C@]1(OC(C)=O)CO[C@@H]1C[C@@H]2O [PACLITAXEL] | 2.82 | 2.19 | 1.46 | 1.07
